Laboratory results taken from publication PMC10663540, “Structure-based discovery of dual pathway inhibitors for SARS-CoV-2 entry” (Nature Communications, 2023).
Values joined by “and” are separate entries in the source; they are usually repeats but may differ in a detail not shown here. Equal entries are not always repeated. Where two headings read alike, the source gives them in different places.

How the values were obtained:
SARS-CoV-2 Delta variant = assay: microbe, parasite or virus in culture; type: cell-based
[1] = test system: SARS-CoV-2 Omicron BA.2 variant; assay: microbe, parasite or virus in culture; type: cell-based; conditions: for EC50: Severe acute respiratory syndrome coronavirus 2
[2] = Calu-3; 0.0012207 μM; replicates
[3] = Calu-3; 0.00488281 μM; replicates
[4] = Calu-3; 0.0195312 μM; replicates
[5] = Calu-3; 0.078125 μM; replicates
[6] = Severe acute respiratory syndrome coronavirus 2, Calu-3; read-out: Antiviral efficacy EC50 (95% CI)
[7] = Severe acute respiratory syndrome coronavirus 2, Calu-3, read-out: Antiviral efficacy EC50 (95% CI)
[8] = Severe acute respiratory syndrome coronavirus 2, Calu-3, read-out: Inhibition: Delta
[9] = Calu-3, Omicron BA.2, […], read-out: Antiviral efficacy EC50 (95% CI)
[10] = Calu-3, Omicron BA.2, one representative replicate, before reprocessing, read-out: EC50, original manuscript version

## CC(C)(NS(=O)(=O)c1ccc2c(Cl)cnc(N=C(N)N)c2c1)C(=O)O [UK-371804]
SARS-CoV-2 Delta variant; [2]
  Inhibition: Delta: -13.87% and -11.09%
SARS-CoV-2 Delta variant; [3]
  Inhibition: Delta: -7.79% and -36.72%
SARS-CoV-2 Delta variant; [4]
  Inhibition: Delta: -13.87% and -11.09%
SARS-CoV-2 Delta variant; [5]
  Inhibition: Delta: 5.76%
SARS-CoV-2 Delta variant; Calu-3; 0.3125 μM; replicates
  Inhibition: Delta: 29.88% and 14.57%
SARS-CoV-2 Delta variant; Calu-3; 1.25 μM; replicates
  Inhibition: Delta: 77.84%
SARS-CoV-2 Delta variant; Calu-3; 5 μM; replicates
  Inhibition: Delta: 90.58%
SARS-CoV-2 Delta variant; Calu-3; 20 μM; replicates
  Inhibition: Delta: 90.58%
SARS-CoV-2 Delta variant; Calu-3; Delta
  Selectivity index (SI = CC50/EC50): 405
SARS-CoV-2 Delta variant; Severe acute respiratory syndrome coronavirus 2, Calu-3, Calu-3; 0.078125 μM; replicates
  inhibition at 0.078125 µM: 7.48%
SARS-CoV-2 Delta variant; Severe acute respiratory syndrome coronavirus 2, Calu-3, Calu-3; 1.25 μM; replicates; read-out: Inhibition: Delta
  inhibition at 1.25 µM: 77.3%
SARS-CoV-2 Delta variant; Severe acute respiratory syndrome coronavirus 2, Calu-3, Calu-3; 5 μM; replicates; read-out: Inhibition: Delta
  inhibition at 5 µM: 88.6%
SARS-CoV-2 Delta variant; Severe acute respiratory syndrome coronavirus 2, Calu-3, Calu-3; 20 μM; replicates; read-out: Inhibition: Delta
  inhibition at 20 µM: 93%
SARS-CoV-2 Delta variant; [6]
  EC50: 0.425 µM

## N=C(N)c1ccc2cc(OC(=O)c3ccc(N=C(N)N)cc3)ccc2c1 [Nafamostat]
SARS-CoV-2 Delta variant; 0.00128 µM
  Inhibition: Delta: -1.10% and 5.80% and -6.46e-6%
SARS-CoV-2 Delta variant; 20 µM
  Inhibition: Delta: 99.61%
SARS-CoV-2 Delta variant; [7]
  EC50: 0.0263 µM
SARS-CoV-2 Delta variant; [8]
  inhibition at 0.8 µM: 98.8%
  inhibition at 4 µM: 98.6%
  inhibition at 20 µM: 99.8%
  inhibition at […]: 90.6% and 87.8%

## CCOC(=O)C1OC1C(=O)NC(CC(C)C)C(=O)NCCC(C)C (centres unmarked) [E64d]
[1]; 0.0411523 µM
  Inhibition: Omicron BA.2: -1.22%
[1]; 0.123457 µM
  Inhibition: Omicron BA.2: 20.89% and 27.12%
[1]; 0.37037 µM
  Inhibition: Omicron BA.2: 68.35% and 58.49%
[1]; 1.11111 µM
  Inhibition: Omicron BA.2: 89.97% and 78.59%
[1]; 3.33333 µM
  Inhibition: Omicron BA.2: 93.67% and 90.37%
[1]; 10 µM
  Inhibition: Omicron BA.2: 97.22% and 98.95%
[1]; [9]
  EC50: 0.24 µM
[1]; [10]
  EC50: 0.227 µM

## CN(C)C(=O)COC(=O)Cc1ccc(OC(=O)c2ccc(NC(=N)N)cc2)cc1 [Camostat]
SARS-CoV-2 Delta variant; 0.078125 µM
  Inhibition: Delta: 31.59% and 52.79%
SARS-CoV-2 Delta variant; 0.3125 µM
  Inhibition: Delta: 64%
SARS-CoV-2 Delta variant; 1.25 µM
  Inhibition: Delta: 96.40%
SARS-CoV-2 Delta variant; 5 µM
  Inhibition: Delta: 92.99%
SARS-CoV-2 Delta variant; 20 µM
  Inhibition: Delta: 91.24%
SARS-CoV-2 Delta variant; [7]
  EC50: 0.109 µM
SARS-CoV-2 Delta variant; [8]
  inhibition at 0.3125 µM: 53.9%
  inhibition at 1.25 µM: 95.4%
  inhibition at 5 µM: 92.4%
  inhibition at 20 µM: 88.9%

## CCOC(=O)c1ccc(OC(=O)CCCCCNC(=N)N)cc1 [Gabexate]
SARS-CoV-2 Delta variant; [2]
  Inhibition: Delta: 14.57% and 29.88%
SARS-CoV-2 Delta variant; [3]
  Inhibition: Delta: -54.36% and -37.95%
SARS-CoV-2 Delta variant; [4]
  Inhibition: Delta: -64.93% and -37.95%
SARS-CoV-2 Delta variant; [5]
  Inhibition: Delta: 31.59% and -7.79%
SARS-CoV-2 Delta variant; Calu-3; 0.3125 μM; replicates
  Inhibition: Delta: 39.67%
SARS-CoV-2 Delta variant; Calu-3; 1.25 μM; replicates
  Inhibition: Delta: -34.59% and 12.43%
SARS-CoV-2 Delta variant; Calu-3; 5 μM; replicates
  Inhibition: Delta: 64.87% and -37.95%
SARS-CoV-2 Delta variant; Calu-3; 20 μM; replicates
  Inhibition: Delta: -11.09% and 39.67%
SARS-CoV-2 Delta variant; Calu-3; Delta
  inhibitory efficacy (in words): negligible
SARS-CoV-2 Delta variant; Severe acute respiratory syndrome coronavirus 2, Calu-3, Calu-3; 0.3125 μM; replicates; read-out: Inhibition: Delta
  inhibition at 0.3125 µM: 53.9%
SARS-CoV-2 Delta variant; [6]
  EC50: > 20 µM

## NC(N)=Nc1ccc(C(=O)OCCN2CCN(C(=O)N[C@@H](Cc3ccccc3)C(=O)N[C@H](/C=C/S(=O)(=O)c3ccccc3)CCc3ccccc3)CC2)cc1 [212-148]
SARS-CoV-2 Delta variant; 212-148 8 μM; Fig. 5e
  Inhibition: Delta/Calu-3: 89.60% and 87.76%
SARS-CoV-2 Delta variant; 212-148 40 μM; Fig. 5e
  Inhibition: Delta/Calu-3: 98.01%
SARS-CoV-2 Delta variant; Calu-3; Delta
  Selectivity index (SI = CC50/EC50): 1,476
SARS-CoV-2 Delta variant; Calu-3; delta strain or omicron strain BA.2 (Fig. 5e)
  block of viral replication in TCID50 assay (in words): completely blocked
SARS-CoV-2 Delta variant; Severe acute respiratory syndrome coronavirus 2, Calu-3, 212-148 8 μM; Fig. 5e; read-out: Inhibition: Delta/Calu-3
  inhibition at 8 µM: 85.5%
SARS-CoV-2 Delta variant; Severe acute respiratory syndrome coronavirus 2, Calu-3, 212-148 40 μM; Fig. 5e; read-out: Inhibition: Delta/Calu-3
  inhibition at 40 µM: 96.1%
SARS-CoV-2 Delta variant; Severe acute respiratory syndrome coronavirus 2, Calu-3, 212-148 200 μM; Fig. 5e
  inhibition at 200 µM: 100%
SARS-CoV-2 Delta variant; [6]
  EC50: 0.235 µM
[1]; 212-148 0.00256 μM, Fig. 5e
  Inhibition: BA.2/Calu-3: 7.11%
[1]; 212-148 0.064 μM, Fig. 5e
  Inhibition: BA.2/Calu-3: 29.70% and 52.65%
[1]; 212-148 8 μM, Fig. 5e
  Inhibition: BA.2/Calu-3: 88.58%
[1]; Calu-3, Omicron BA.2
  Selectivity index (SI = CC50/EC50): 5,391
[1]; Severe acute respiratory syndrome coronavirus 2, Calu-3, 212-148 8 μM, Fig. 5e
  inhibition at 8 µM: 85.9%
[1]; Severe acute respiratory syndrome coronavirus 2, Calu-3, 212-148 40 μM, Fig. 5e
  inhibition at 40 µM: 99.4%
[1]; [9]
  EC50: 0.0644 µM

## CN1CCN(C(=O)N[C@@H](Cc2ccccc2)C(=O)N[C@H](/C=C/S(=O)(=O)c2ccccc2)CCc2ccccc2)CC1 [K777]
SARS-CoV-2 Delta variant; Calu-3; 0.00256 μM; replicates
  Inhibition: Delta: -6.46e-6% and 5.80% and -22.49%
SARS-CoV-2 Delta variant; Calu-3; 0.0128 μM; replicates
  Inhibition: Delta: 16.53% (2×) and 0.45%
SARS-CoV-2 Delta variant; Calu-3; 0.064 μM; replicates
  Inhibition: Delta: 24.66% (2×) and 0.45%
SARS-CoV-2 Delta variant; Calu-3; 8 μM; replicates
  Inhibition: Delta: 82.03%
SARS-CoV-2 Delta variant; Calu-3; 40 μM; replicates
  Inhibition: Delta: 97.04%
SARS-CoV-2 Delta variant; Severe acute respiratory syndrome coronavirus 2, Calu-3, Calu-3; 8 μM; replicates; read-out: Inhibition: Delta
  inhibition at 8 µM: 85.5%
SARS-CoV-2 Delta variant; Severe acute respiratory syndrome coronavirus 2, Calu-3, Calu-3; 40 μM; replicates; read-out: Inhibition: Delta
  inhibition at 40 µM: 98%
SARS-CoV-2 Delta variant; [6]
  EC50: 0.639 µM
[1]; Calu-3, 0.00457247 μM, rep1-rep2
  Inhibition: Omicron BA.2: -0.32% and 3.09%
[1]; Calu-3, 0.123457 μM, rep1-rep2
  Inhibition: Omicron BA.2: 90.17%
[1]; Calu-3, 0.37037 μM, rep1-rep2
  Inhibition: Omicron BA.2: 90.95%
[1]; Calu-3, 1.11111 μM, rep1-rep2
  Inhibition: Omicron BA.2: 85.59%
[1]; Calu-3, 3.33333 μM, rep1-rep2
  Inhibition: Omicron BA.2: 91.43%
[1]; Calu-3, 10 μM, rep1-rep2
  Inhibition: Omicron BA.2: 91.43%
[1]; Severe acute respiratory syndrome coronavirus 2, Calu-3, Calu-3, 0.123457 μM, rep1-rep2
  inhibition at 0.123457 µM: 70.6%
[1]; Severe acute respiratory syndrome coronavirus 2, Calu-3, Calu-3, 0.37037 μM, rep1-rep2
  inhibition at 0.37037 µM: 87.7%
[1]; Severe acute respiratory syndrome coronavirus 2, Calu-3, Calu-3, 1.11111 μM, rep1-rep2
  inhibition at 1.11111 µM: 97.1%
[1]; Severe acute respiratory syndrome coronavirus 2, Calu-3, Calu-3, 3.33333 μM, rep1-rep2
  inhibition at 3.33333 µM: 98%
[1]; Severe acute respiratory syndrome coronavirus 2, Calu-3, Calu-3, 10 μM, rep1-rep2
  inhibition at 10 µM: 99.2%
[1]; [9]
  EC50: 0.014 µM
[1]; [10]
  EC50: 0.0777 µM
